In article PMC7253177, “Gain of channel function and modified gating properties in TRPM3 mutants causing intellectual disability and epilepsy” (eLife, 2020):

How the values were obtained:
TRPM3 P1090Q mutant = molecular target: T1, TRPM3 P1090Q mutant (Homo sapiens, UniProt Q9HCF6, P1115Q)
T1 sequence (Q9HCF6 1-1325 isoform Q9HCF6-10 P1090Q): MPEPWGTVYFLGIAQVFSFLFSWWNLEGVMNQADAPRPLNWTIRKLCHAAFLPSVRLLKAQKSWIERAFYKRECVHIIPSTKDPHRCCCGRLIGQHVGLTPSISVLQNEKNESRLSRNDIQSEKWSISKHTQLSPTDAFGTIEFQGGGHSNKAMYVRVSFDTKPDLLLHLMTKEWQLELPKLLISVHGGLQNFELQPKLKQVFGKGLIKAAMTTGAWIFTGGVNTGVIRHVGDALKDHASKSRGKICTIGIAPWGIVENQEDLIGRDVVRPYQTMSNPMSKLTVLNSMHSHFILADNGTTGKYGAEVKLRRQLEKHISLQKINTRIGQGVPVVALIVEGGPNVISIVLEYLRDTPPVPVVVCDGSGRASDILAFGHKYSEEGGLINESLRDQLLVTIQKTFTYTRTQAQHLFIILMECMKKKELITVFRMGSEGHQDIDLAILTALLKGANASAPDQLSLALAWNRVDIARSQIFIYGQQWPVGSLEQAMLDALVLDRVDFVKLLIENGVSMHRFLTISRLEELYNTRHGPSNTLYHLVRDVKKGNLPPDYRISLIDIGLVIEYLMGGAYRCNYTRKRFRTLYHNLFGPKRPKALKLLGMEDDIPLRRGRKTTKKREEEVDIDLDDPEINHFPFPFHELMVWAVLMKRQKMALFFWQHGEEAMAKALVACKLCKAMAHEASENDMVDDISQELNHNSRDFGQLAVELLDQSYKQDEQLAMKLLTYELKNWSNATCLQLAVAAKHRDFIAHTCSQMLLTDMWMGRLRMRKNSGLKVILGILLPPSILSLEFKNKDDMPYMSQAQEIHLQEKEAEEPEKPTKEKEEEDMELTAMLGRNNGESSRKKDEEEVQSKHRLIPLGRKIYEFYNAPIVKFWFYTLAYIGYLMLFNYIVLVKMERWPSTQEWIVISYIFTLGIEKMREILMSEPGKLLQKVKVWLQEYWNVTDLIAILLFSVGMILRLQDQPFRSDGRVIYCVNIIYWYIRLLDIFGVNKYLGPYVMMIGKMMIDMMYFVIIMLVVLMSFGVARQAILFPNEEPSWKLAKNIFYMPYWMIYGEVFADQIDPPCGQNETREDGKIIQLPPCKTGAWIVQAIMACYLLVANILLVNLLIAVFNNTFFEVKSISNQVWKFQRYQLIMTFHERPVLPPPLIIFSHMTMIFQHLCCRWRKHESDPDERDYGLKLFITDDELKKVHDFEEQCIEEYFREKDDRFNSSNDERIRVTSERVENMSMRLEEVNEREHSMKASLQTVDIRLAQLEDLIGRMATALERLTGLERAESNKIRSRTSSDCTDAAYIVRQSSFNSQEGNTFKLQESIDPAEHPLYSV
Description: (§1) HEK293T cells ([Graham et al., 1977]) were cultured as described previously ([Vriens et al., 2007]) and used up in passage number 14. HEK293T cells were tested for the lack of mycoplasma and transiently transfected with 2 µg of DNA using TransIT transfection reagent (Mirus) 36–48 hr before the measurements. In case of co-cultures a ratio of 1:1 between hTRPM3-YFP WT and mutants-YFP DNA was used.
All mutants were obtained by the standard PCR overlap extension method using hTRPM3 directly linked to YFP from pCAGGS/IRES-GFP vector ([Vriens et al., 2007]). Accuracy of all mutant sequences was verified by sequencing of the entire DNA constructs.
Standard whole-cell patch-clamp recordings were performed with an EPC-10 amplifier and the PatchMasterPro Software (HEKA Elektronik, Lambrecht, Germany). Current measurements were performed at a sampling rate of 20 kHz and currents were digitally filtered at 2.9 kHz. In all measurements, 70% of the series resistance was compensated. The standard internal solution contained (in mM): 100 CsAsp, 45 CsCl, 10 EGTA, 10 HEPES, 1 MgCl2 (pH 7.2 with CsOH) or 140 potassium gluconate, 5 EGTA, 1 MgCl2, 10 HEPES and 2 NaATP (pH 7.3 with CsOH) for the measurements of Gβγ mediated inhibition and the standard extracellular solution contained (in mM): 150 NaCl, 1 MgCl2, 10 HEPES (pH 7.4 with NaOH). The standard patch pipette resistance was between 2 MΩ and 4 MΩ when filled with pipette solution. In experiments allowing Ca^2+-dependent desensitization of TRPM3, Mg^2+ was replaced by Ca^2+ in the extracellular solution, and Cs^+ was replaced by Na^+ in the pipette solution. […] The chemical ligands were dissolved in bath solution from a stock diluted in DMSO.

WT:V990M TRPM3 mixture = assay: Whole-cell patch clamp, HEK293T cells co-transfected with WT and V990M TRPM3 (1:1); type: cell-based, human; conditions: WT:V990M 1:1; Clt 10 µM
Text: (§2) Considering that all reported DEE patients were heterozygous for the TRPM3 substitutions ([Dyment et al., 2019]), and that TRPM3 is functional as a tetramer, it can be expected that patient cells express a mixture of WT and mutant channel subunits, potentially leading to the formation of heteromultimeric channels with variable stoichiometry. To mimic the heterozygous condition in vitro, we performed a limited number of experiments in cells co-transfected with a mixture of cDNA encoding WT and mutant TRPM3 in a 1:1 ratio.
as §1
(§3) Standard whole-cell patch-clamp recordings were performed with an EPC-10 amplifier and the PatchMasterPro Software (HEKA Elektronik, Lambrecht, Germany). Current measurements were performed at a sampling rate of 20 kHz and currents were digitally filtered at 2.9 kHz. In all measurements, 70% of the series resistance was compensated. […]

WT:P1090Q TRPM3 mixture = assay: Whole-cell patch clamp, HEK293T cells co-transfected with WT and P1090Q TRPM3 (1:1); type: cell-based, human; conditions: WT:P1090Q 1:1; Clt 10 µM, PS 40 µM
Text: as §2, §1, §3

SMILES | Activation of whole-cell currents in the absence of PS (TRPM3 P1090Q mutant; Clt 10 µM) | Effect on the response to PS (whole-cell currents) (TRPM3 P1090Q mutant; Clt 10 µM, PS 40 µM) | Activation of whole-cell currents in the absence of PS (WT:V990M TRPM3 mixture) | Effect of pre-incubation on PS responses (whole-cell currents) (WT:P1090Q TRPM3 mixture) | Inhibition of PS-activated inward and outward currents (TRPM3 P1090Q mutant; primidone 25 µM, PS 40 µM, ±80 mV, cells co-expressing µ-opioid receptor)
Clc1ccccc1C(c1ccccc1)(c1ccccc1)n1ccnc1 [Clt, clotrimazole] | did not activate currents | inhibited the response to PS | activated robust currents | first a potentiation of the PS responses by pre-incubation of Clt, followed by a time-dependent current inhibition | 
CCC1(c2ccccc2)C(=O)NCNC1=O [primidone] |  |  |  |  | full inhibition
